For orientation: IC50 means the midpoint of a concentration-inhibition curve.

Holding throughout (assay type): cell-based
One assay deals with T1, Caspase6 (Homo sapiens, UniProt P55212).
T1 construct: each full-length Caspase construct was expressed (for Caspases-1, 2, 3, 4, 5, 6, 7, and 9) at high levels; HA (N); expressed in transfected cells; host or cells: Saccharomyces cerevisiae (EGY48)
T1 sequence (P55212 1-293): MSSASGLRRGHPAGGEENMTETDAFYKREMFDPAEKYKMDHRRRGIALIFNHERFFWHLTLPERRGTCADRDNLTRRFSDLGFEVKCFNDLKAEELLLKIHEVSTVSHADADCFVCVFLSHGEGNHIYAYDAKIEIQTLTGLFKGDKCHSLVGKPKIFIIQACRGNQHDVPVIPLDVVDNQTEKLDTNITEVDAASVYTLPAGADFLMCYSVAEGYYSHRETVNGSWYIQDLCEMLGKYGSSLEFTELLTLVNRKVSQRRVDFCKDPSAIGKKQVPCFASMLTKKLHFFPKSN
Briefly: yeast 384 well β-galactosidase reporter assay, Caspase6. The note with it: Caspase6 in yeast, 384 well β-galactosidase activity assay. The source says: (§1) When converting the yeast-based protease reporter system to HTS assay, conditions from agar plates to liquid medium in microtiter wells must be revised. This revision comprises, utilizing the measured β-galactosidase produced by yeast carrying the Caspase-cleavable reporter proteins, and assaying the colorimetric product (OD620nm) derived from X-gal substrate in 384 well plates, as a measure of the lacZ reporter gene activity. We compared β-galactosidase activity produced in the presence or absence of the broad-spectrum caspase inhibitory compound, zVAD-fmk ([…]-Valinyl-Alaninyl-Aspartyl-fluoromethylketone). […] Note that it was determined that it is not advisible to employ glucose in yeast media because it represses the GAL1 promoter used in some plasmids. […]
(§2) Yeast expressing various Caspases alone (at high levels) or in combination with upstream activators (at low levels) and cleavable substrates containing appropriate tetrapeptides reorganized by these proteases were used in 384 well β-galactosidase activity assays to assess inhibition by zVAD-fmk. The compound was titrated into assays at various concentrations and percentage inhibition was determined.
(§3) Assays were performed in a total volume of […] in triplicate. […] Absorbance at 620 nm was measured 2-3 days after culture at 30° C.
(In general: A reporter such as luciferase makes a cellular process visible.)

Assay [1] has as its target T2, Caspase8 activated with FADD + Fas (Homo sapiens, UniProt Q14790).
T2 construct: a small amount of each full-length Caspase construct was expressed with a large amount of adaptor protein FADD; HA (C); expressed in transfected cells; host or cells: Saccharomyces cerevisiae EGY48
Briefly: yeast 384 well β-galactosidase reporter assay, Caspase8 activated with FADD + Fas. Particulars: Caspase8 activated with FADD + Fas in yeast, 384 well β-galactosidase activity assay.
Text: as §1, §2, §3

Assay [2] addresses T3, Caspase1 activated with Asc (Homo sapiens, UniProt P29466).
T3 construct: Caspase (all full-length zymogen proforms) expression plasmids; FLAG (C); expressed in transfected cells; host or cells: Saccharomyces cerevisiae (EGY191 or EGY48)
T3 sequence (P29466 120-297 limits assumed): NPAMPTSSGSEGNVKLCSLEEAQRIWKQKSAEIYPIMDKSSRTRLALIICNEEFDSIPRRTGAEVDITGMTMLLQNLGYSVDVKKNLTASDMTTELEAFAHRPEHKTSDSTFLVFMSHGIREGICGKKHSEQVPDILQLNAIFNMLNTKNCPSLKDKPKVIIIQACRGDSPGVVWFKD
T3 sequence (P29466 317-404 limits assumed): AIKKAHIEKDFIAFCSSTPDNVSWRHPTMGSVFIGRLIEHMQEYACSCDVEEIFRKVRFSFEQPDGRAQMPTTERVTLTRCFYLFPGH
Briefly: yeast 384 well β-galactosidase reporter assay, Caspase1 activated with Asc. The note with it: Caspase1 activated with Asc in yeast, 384 well β-galactosidase activity assay.
Text: as §1, §2, §3

The next assay deals with T4, Caspase1 (Homo sapiens, UniProt P29466).
T4 construct: each full-length Caspase construct was expressed (for Caspases-1, 2, 3, 4, 5, 6, 7, and 9) at high levels; FLAG (C); HA (N); expressed in transfected cells; host or cells: Saccharomyces cerevisiae (EGY48)
T4 sequence (P29466 1-404): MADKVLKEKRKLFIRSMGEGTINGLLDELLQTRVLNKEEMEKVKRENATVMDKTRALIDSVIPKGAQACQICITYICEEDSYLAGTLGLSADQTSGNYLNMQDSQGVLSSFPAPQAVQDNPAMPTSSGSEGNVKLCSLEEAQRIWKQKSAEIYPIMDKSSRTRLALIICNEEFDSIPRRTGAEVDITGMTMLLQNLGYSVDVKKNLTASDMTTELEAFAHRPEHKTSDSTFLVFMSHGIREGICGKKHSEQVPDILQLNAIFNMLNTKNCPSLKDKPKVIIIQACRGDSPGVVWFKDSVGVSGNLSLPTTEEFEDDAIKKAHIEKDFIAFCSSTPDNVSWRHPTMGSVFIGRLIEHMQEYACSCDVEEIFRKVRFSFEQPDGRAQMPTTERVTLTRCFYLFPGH
Briefly: yeast 384 well β-galactosidase reporter assay, Caspase1 expressed alone. Particulars: Caspase1 in yeast, 384 well β-galactosidase activity assay.
Text: as §1, §2, §3

The target of the next assay is T5, Caspase7 (Homo sapiens, UniProt P55210).
T5 construct: each full-length Caspase construct was expressed (for Caspases-1, 2, 3, 4, 5, 6, 7, and 9) at high levels; expressed in transfected cells; host or cells: Saccharomyces cerevisiae (EGY48)
T5 sequence (P55210 1-303): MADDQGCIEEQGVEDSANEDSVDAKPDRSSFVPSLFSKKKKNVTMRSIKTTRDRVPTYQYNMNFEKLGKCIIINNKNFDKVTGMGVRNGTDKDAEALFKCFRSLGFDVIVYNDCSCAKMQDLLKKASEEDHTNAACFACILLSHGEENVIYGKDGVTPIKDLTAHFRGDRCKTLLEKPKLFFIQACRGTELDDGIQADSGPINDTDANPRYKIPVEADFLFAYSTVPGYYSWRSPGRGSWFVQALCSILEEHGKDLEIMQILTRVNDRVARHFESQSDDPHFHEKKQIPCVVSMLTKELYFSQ
Briefly: yeast 384 well β-galactosidase reporter assay, Caspase7. The note with it: Caspase7 in yeast, 384 well β-galactosidase activity assay.
Text: as §1, §2, §3

T2 sequence (Q14790 217-374 limits assumed): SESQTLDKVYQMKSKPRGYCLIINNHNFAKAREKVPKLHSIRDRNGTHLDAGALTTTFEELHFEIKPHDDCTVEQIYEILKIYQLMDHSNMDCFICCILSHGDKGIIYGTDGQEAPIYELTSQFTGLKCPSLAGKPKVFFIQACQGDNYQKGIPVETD
T2 sequence (Q14790 385-479 limits assumed): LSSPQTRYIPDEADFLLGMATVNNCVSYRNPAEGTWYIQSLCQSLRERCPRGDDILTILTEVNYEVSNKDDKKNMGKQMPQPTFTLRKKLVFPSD

With “benzoyl-Valinyl-Alaninyl-Aspartyl-fluoromethylketone [zVAD-fmk]”, the half-maximal inhibitory concentration (IC50) on Caspase6 was 6.78 µM; in assay [1], 5.42 µM; in assay [2] it was 1 µM; on Caspase1, 3.07 µM; on Caspase7 it was 4.11 µM.
